This note sets out measurements from article PMC2854724, “In Vitro Screening of Environmental Chemicals for Targeted Testing Prioritization: The ToxCast Project” (Environmental Health Perspectives, 2009).

Test [1] concerns HepG2 (hepatocellular carcinoma cell line G2). Kind of test: HepG2 high-content cell-imaging assays (mitochondrial poison). In kind it is cell-based, human. The text has this: (§1) There are 467 cell-free or cell-based assays.
Test [2] deals with T1, PPARα (Homo sapiens, UniProt Q07869).
T1 sequence (Q07869 1-468): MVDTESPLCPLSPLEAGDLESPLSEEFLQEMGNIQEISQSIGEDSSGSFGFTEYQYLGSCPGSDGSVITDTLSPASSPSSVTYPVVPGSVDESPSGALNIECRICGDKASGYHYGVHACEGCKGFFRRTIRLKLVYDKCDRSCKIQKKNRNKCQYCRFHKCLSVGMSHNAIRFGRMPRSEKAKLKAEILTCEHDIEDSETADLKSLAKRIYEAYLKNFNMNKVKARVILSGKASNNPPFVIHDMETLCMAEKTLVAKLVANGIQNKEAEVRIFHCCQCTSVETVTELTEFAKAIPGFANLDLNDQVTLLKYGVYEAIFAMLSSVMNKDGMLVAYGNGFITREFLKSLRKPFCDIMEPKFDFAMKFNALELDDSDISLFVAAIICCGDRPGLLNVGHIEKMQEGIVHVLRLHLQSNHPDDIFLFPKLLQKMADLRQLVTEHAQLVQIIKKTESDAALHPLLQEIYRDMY
Kind of test: PPARα assays.
From the text: as §1

Test [3] addresses T2, PPARγ (Homo sapiens, UniProt P37231).
T2 sequence (P37231 1-505): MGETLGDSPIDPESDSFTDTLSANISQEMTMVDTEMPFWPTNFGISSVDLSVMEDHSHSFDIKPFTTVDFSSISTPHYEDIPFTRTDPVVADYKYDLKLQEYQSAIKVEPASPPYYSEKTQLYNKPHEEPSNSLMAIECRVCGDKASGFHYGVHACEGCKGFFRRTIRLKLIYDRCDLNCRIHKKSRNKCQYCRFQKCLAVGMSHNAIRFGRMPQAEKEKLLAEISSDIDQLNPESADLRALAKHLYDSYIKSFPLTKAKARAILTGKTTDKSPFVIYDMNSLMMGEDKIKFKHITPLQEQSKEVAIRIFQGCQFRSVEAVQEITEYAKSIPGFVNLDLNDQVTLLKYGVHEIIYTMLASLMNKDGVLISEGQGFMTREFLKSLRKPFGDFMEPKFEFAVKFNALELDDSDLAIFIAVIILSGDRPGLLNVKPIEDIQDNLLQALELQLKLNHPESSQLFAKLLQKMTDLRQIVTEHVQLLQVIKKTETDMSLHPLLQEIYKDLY
Kind of test: PPARγ assays.
From the text: We screened the chemical library using nine separate assay technologies, with assays run in concentration–response format and in some cases with multiple time points. Assays encompass both direct, primary interactions between chemicals and molecular targets and downstream cellular events such as gene expression. […] There are 467 cell-free or cell-based assays. Assay sets include biochemical HTS and cell-based HTS assays measuring direct molecular interactions with specific protein targets; high-content cell-imaging assays measuring complex cellular phenotypes; a multiplexed gene expression assay for xenobiotic metabolizing enzymes and transporters in human primary hepatocytes; multiplexed transcription factor reporter assays; multiplexed biological activity profiling assays measuring biomarkers in a variety of human primary cell cocultures; assays measuring effects of phase I and II xenobiotic metabolizing enzyme (XMEs) on cytotoxicity; an HTS genotoxicity assay; and a real-time cellular impedance assay that measures the kinetics of cell growth and changes in morphology. For all cell-based assays, time points were selected on the basis of studies conducted during the assay development and were considered optimal for the end point being evaluated.
A total of 624 in vitro assay end points (including multiple time points) were measured for each chemical, generating > 200,000 concentration responses. […] In all cases we report a characteristic micromolar concentration for each chemical–assay combination.

Test [4] deals with matrix metalloproteinase (MMP)3 (Homo sapiens, UniProt P08254). Description: Cell-free HTS assay, direct interaction with MMP3. In kind it is biochemical.
From the text: as §1

For test [5], the target named is MMP13 (Homo sapiens, UniProt P45452). Kind of test: Cell-free HTS assay, direct interaction with MMP13. In kind it is biochemical.
From the text: as §1

For test [6], the system named is MMP1. Kind of test: Cell-based assay, perturbation of MMP1 levels.
From the text: as §1

Test [7] deals with MMP9. Kind of test: Cell-based assay, perturbation of MMP9 levels.
From the text: as §1

SMILES strings stand for the structures.

matrix metalloproteinase (MMP)3, sequence (P08254 100-477): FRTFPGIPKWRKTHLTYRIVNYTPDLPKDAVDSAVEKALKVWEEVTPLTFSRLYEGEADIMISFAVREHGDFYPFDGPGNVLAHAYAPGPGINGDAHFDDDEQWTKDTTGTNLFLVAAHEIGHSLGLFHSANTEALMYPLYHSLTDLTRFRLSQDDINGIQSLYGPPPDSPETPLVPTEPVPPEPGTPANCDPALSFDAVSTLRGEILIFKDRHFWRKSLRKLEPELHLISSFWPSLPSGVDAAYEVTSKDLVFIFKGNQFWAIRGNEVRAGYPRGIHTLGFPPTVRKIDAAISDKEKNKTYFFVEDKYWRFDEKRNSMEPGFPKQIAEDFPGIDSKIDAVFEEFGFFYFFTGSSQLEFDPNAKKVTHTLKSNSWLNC

Consider `CO/C=C(/C(=O)OC)c1ccccc1Oc1cc(Oc2ccccc2C#N)ncn1` [Azoxystrobin], for which the “Mitochondrial poison activity in HepG2 high-content cell imaging” value (shortened to “Mitochondrial poison activity”) in test [1] is “active mitochondrial poisons”.
Take `O=C(O)C(F)(F)C(F)(F)C(F)(F)C(F)(F)C(F)(F)C(F)(F)C(F)(F)F` [PFOA, perfluorooctanoic acid]: the “Activity in PPARα assays” value in test [2] is “active”.
In the case of `O=S(=O)(O)C(F)(F)C(F)(F)C(F)(F)C(F)(F)C(F)(F)C(F)(F)C(F)(F)C(F)(F)F` [PFOS, perfluorooctane sulfonic acid], in test [3], the “Activity in PPARγ assays” value is reported as “positive”. Also, the “Activity in PPARα assays” value in test [2] is given as “all but PFOS were also active”. In addition, the AC50 in test [4] stood at 14.6 µM; in test [5], 32.4 µM; in test [6], 13.3 µM; in test [7], 4.4 µM.
Turning to `CCCCC(CC)COC(=O)c1ccccc1C(=O)OCC(CC)CCCC` (centres unmarked) [diethylhexyl phthalate], the “Activity in PPARγ assays” value in test [3] is listed as “positive”. Moreover, in test [2], the “Activity in PPARα assays” value is “active”.
With `CO/N=C(/C1=NOCCO1)c1ccccc1Oc1ncnc(Oc2ccccc2Cl)c1F` [fluoxastrobin], in test [1], the “Mitochondrial poison activity” value was “active mitochondrial poisons”.
As for `CCOC(=O)C(C)OC(=O)c1cc(Oc2ccc(C(F)(F)F)cc2Cl)ccc1[N+](=O)[O-]` (centres unmarked) [lactofen], the “Activity in PPARγ assays” value in test [3] is given as “positive”. In test [2], the “Activity in PPARα assays” value is recorded as “active”.
Consider `COC(=O)N(OC)c1ccccc1COc1ccn(-c2ccc(Cl)cc2)n1` [pyraclostrobin], for which, in test [1], the “Mitochondrial poison activity” value is “active mitochondrial poisons”.

The AC50 is the concentration at which the activity in the assay is half-maximal. A low value points to greater potency.
